How the values were obtained:
Carbonic anhydrase 12 = Carbonic anhydrase 12 (Homo sapiens, UniProt O43570); test: Inhibition of human recombinant carbonic anhydrase 12 by stopped flow CO2 hydration method
Carbonic anhydrase 1 = Carbonic anhydrase 1 (Homo sapiens, UniProt P00915); test: Inhibition of human recombinant carbonic anhydrase 1 by stopped flow CO2 hydration method
Carbonic anhydrase 9 = Carbonic anhydrase 9 (Homo sapiens, UniProt Q16790); test: Inhibition of human recombinant carbonic anhydrase 9 by stopped flow CO2 hydration method
Carbonic anhydrase 2 = Carbonic anhydrase 2 (Homo sapiens, UniProt P00918); test: Inhibition of human recombinant carbonic anhydrase 2 by stopped flow CO2 hydration method

Carbonic anhydrase 1, sequence (P00915 whole entry): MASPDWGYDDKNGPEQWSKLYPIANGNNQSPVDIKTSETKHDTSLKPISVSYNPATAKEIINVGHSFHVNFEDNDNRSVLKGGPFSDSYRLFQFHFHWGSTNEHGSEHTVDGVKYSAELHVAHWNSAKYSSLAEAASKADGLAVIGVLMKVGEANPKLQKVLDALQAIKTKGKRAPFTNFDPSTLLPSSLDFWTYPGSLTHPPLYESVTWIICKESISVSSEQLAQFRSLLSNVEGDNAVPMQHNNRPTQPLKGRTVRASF
Carbonic anhydrase 12, sequence (O43570 whole entry): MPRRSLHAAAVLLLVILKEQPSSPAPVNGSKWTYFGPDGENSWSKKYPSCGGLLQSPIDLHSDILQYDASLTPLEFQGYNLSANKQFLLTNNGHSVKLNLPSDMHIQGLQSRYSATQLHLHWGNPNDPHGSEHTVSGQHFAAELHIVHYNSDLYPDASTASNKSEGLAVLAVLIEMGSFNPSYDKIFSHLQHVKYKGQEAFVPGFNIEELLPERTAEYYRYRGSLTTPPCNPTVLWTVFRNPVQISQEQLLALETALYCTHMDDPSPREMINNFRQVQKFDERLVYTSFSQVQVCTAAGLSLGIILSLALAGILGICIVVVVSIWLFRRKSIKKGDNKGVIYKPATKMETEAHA

SMILES | Ki (Carbonic anhydrase 12) | Ki (Carbonic anhydrase 1) | Ki (Carbonic anhydrase 9) | Ki (Carbonic anhydrase 2)
CC1=CC(OCC#N)=NS(=O)(=O)O1 |  | 2.9 µM | 0.047 µM | > 20 µM
CC(=O)CN1C(=O)C=C(C)OS1(=O)=O |  | 15.6 µM | > 20 µM | 2.18 µM
CC(=O)COC1=NS(=O)(=O)OC(C)=C1 |  | 2.49 µM | > 20 µM | > 20 µM
CCOC(=O)CN1C(=O)C=C(C)OS1(=O)=O |  | > 20 µM | 0.047 µM | > 20 µM
CCOC(=O)COC1=NS(=O)(=O)OC(C)=C1 |  | > 20 µM | 0.043 µM | > 20 µM
CC1=CC(OCc2ccccc2[N+](=O)[O-])=NS(=O)(=O)O1 |  | > 20 µM | 0.041 µM | > 20 µM
CC1=CC(OCc2cccc([N+](=O)[O-])c2)=NS(=O)(=O)O1 |  | > 20 µM | > 20 µM | > 20 µM
CC1=CC(OCc2ccccc2Br)=NS(=O)(=O)O1 |  | > 20 µM | 0.249 µM | > 20 µM
CC1=CC(OCc2cccc(F)c2)=NS(=O)(=O)O1 |  | > 20 µM | > 20 µM | > 20 µM
CC1=CC(=O)N(Cc2c(F)cccc2F)S(=O)(=O)O1 |  | > 20 µM | > 20 µM | > 20 µM
CC1=CC(OCC(=O)c2ccccc2)=NS(=O)(=O)O1 |  | > 20 µM | 0.0153 µM | > 20 µM

The remaining lines, values ahead:

Ki (Carbonic anhydrase 12) | Ki (Carbonic anhydrase 1) | Ki (Carbonic anhydrase 9) | Ki (Carbonic anhydrase 2) | SMILES
0.103 µM | > 20 µM | 0.114 µM | > 20 µM | C=CCN1C(=O)C=C(C)OS1(=O)=O
 | > 20 µM | 0.199 µM | > 20 µM | C=CCOC1=NS(=O)(=O)OC(C)=C1
 | > 20 µM |  | > 20 µM | C#CCOC1=NS(=O)(=O)OC(C)=C1
 | > 20 µM | 0.041 µM | > 20 µM | CC1=CC(=O)N(Cc2ccccc2[N+](=O)[O-])S(=O)(=O)O1
 | > 20 µM | 0.267 µM | > 20 µM | CC1=CC(=O)N(Cc2cccc([N+](=O)[O-])c2)S(=O)(=O)O1
 | > 20 µM | 0.284 µM | > 20 µM | CC1=CC(=O)N(Cc2cccc(Br)c2)S(=O)(=O)O1
 | > 20 µM | 0.285 µM | > 20 µM | CC1=CC(=O)N(Cc2ccccc2F)S(=O)(=O)O1
 | > 20 µM | 0.275 µM | > 20 µM | CC1=CC(=O)N(Cc2cccc(F)c2)S(=O)(=O)O1
 | > 20 µM | 0.309 µM | > 20 µM | CC1=CC(=O)N(Cc2ccc(C#N)cc2)S(=O)(=O)O1
 | > 20 µM | 0.0057 µM | > 20 µM | CC1=CC(=O)N(CC(=O)c2ccccc2)S(=O)(=O)O1
 | 1.3 µM | 0.0168 µM | 0.0255 µM | CC1=CC(=O)N(CC(=O)c2cccc([N+](=O)[O-])c2)S(=O)(=O)O1

— ChEMBL document CHEMBL3352509, “Cyclic tertiary sulfamates: selective inhibition of the tumor-associated carbonic anhydrases IX and XII by N- and O-substituted acesulfame derivatives” (Eur J Med Chem, 2014)
